Measured values: patent publication US20240400553A1, “AMINE BASED MATRIPTASE 2 INHIBITORS AND USES THEREOF” (Disc Medicine, Inc., priority 2023, published 2024)

What follows are molecules tested against T1, Human Recombinant Matriptase 2 (Homo sapiens, UniProt Q8IU80) (assay: Matriptase 2 inhibition, fluorescence based assay (Method I)). Details: Table A; Ki of Matriptase-2; read-out: Mat-2 Ki.
T1 construct: made in house
T1 sequence (Q8IU80 1-811): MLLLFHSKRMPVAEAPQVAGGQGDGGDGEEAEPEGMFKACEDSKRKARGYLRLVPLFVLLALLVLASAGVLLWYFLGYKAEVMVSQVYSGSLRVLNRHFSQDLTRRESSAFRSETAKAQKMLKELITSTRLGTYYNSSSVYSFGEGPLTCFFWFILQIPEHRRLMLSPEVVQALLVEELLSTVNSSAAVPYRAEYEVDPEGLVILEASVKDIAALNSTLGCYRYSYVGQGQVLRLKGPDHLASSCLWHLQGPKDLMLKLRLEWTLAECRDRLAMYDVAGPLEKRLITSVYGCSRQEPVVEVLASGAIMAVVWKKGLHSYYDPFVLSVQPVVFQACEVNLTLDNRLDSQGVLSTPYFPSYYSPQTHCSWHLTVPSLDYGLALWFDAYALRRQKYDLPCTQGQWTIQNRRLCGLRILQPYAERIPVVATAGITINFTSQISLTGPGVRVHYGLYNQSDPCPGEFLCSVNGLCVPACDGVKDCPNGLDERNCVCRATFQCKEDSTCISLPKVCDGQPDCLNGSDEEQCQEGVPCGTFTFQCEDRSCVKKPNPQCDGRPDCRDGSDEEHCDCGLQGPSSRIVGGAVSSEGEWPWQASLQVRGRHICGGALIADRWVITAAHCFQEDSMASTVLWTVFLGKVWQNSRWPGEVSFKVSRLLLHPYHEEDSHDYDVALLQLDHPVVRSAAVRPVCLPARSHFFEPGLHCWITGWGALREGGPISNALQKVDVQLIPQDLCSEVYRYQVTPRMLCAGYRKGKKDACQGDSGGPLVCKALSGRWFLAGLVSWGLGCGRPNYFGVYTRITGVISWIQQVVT
Type: biochemical
Procedure, shortened: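 In-house recombinant enzyme (3.5 nM), preincubated 30 min with compound, then Boc-Gln-Ala-Arg-AMC substrate (62 μM) in 50 mM Tris pH 7.5, 150 mM NaCl, 0.01% gelatin, 1% DMSO, 25 °C. Fluorescence (Ex 360/Em 480 nm) read 60 min after substrate; IC50 from variable-slope sigmoidal fit of % inhibition.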
`CN(C)C(=O)COC(=O)c1cc2ccc(CN)nc2n1Cc1cc(NS(=O)(=O)Cc2ccccc2)cc2ccccc12` [Compound 139, (dimethylcarbamoyl)-methyl 6-(aminomethyl)-1-{[3-(phenylmethane-sulfonamido)naphthalen-1-yl]methyl}-1H-pyrrolo-[2,3-b]pyridine-2-car-boxylate] showed a Ki of 100 to 500 nM. Work on `Cc1nccn1CCOC(=O)c1cc2ccc(CN)nc2n1Cc1cc(NS(=O)(=O)Cc2ccccc2)cc2ccccc12` [Compound 140, 2-(2-methyl-1H-imid-azol-1-yl)ethyl 6-(amino-methyl)-1-{[3-(phenyl-methanesulfonamido)-naphthalen-1-yl]methyl}-1H-pyrrolo[2,3-b]pyr-idine-2-carboxylate] yielded a Ki of 100 to 500 nM. Molecule `CC(=O)N(C)CCOC(=O)c1cc2ccc(CN)nc2n1Cc1cc(NS(=O)(=O)Cc2ccccc2)cc2ccccc12` [Compound 141, 2-(N-methylacetamido)-ethyl 6-(aminomethyl)-1-{[3-(phenylmethane-sulfonamido)naphthalen-1-yl]methyl}-1H-pyrrolo-[2,3-b]pyridine-2-car-boxylate] has a Ki of 100 to 500 nM. For `COCCN1CCC(COC(=O)c2cc3ccc(CN)nc3n2Cc2cc(NS(=O)(=O)Cc3ccccc3)cc3ccccc23)CC1` [Compound 142, [1-(2-methoxyethyl)-piperidin-4-yl]methyl 6-(aminomethyl)-1-{[3-(phenylmethanesulfon-amido)naphthalen-1-yl]-methyl}-1H-pyrrolo[2,3-b]pyridine-2-carboxylate], the Ki was 100 to 500 nM. `CN1CCC(COC(=O)c2cc3ccc(CN)nc3n2Cc2cc(NS(=O)(=O)Cc3cccs3)cc3ccccc23)CC1` [Compound 146, (1-methylpiperidin-4-yl)-methyl 6-(aminometh-yl)-1-({3-[(thiophen-2-yl)methanesulfonamido]-naphthalen-1-yl}methyl)-1H-pyrrolo[2,3-b]pyr-idine-2-carboxylate] showed a Ki of at most 100 nM. `CN1CCC(COC(=O)c2cc3ccc(CN)nc3n2Cc2cc(NS(=O)(=O)Cc3sccc3F)cc3ccccc23)CC1` [Compound 147, (1-methylpiperidin-4-yl)-methyl 6-(aminomethyl)-1-({3-[(3-fluorothiophen-2-yl)methanesulfon-amido]naphthalen-1-yl}-methyl)-1H-pyrrolo[2,3-b]pyridine-2-carboxylate] gave a Ki of at most 100 nM. For `CN(C)CCOC(=O)c1cc2ccc(CN)nc2n1Cc1cc(NS(=O)(=O)Cc2cccs2)cc2ccccc12` [Compound 148, 2-(dimethylamino)ethyl 6-(aminomethyl)-1-({3-[(thiophen-2-yl)methane-sulfonamido]naphthalen-1-yl}methyl)-1H-pyr-rolo[2,3-b]pyridine-2-carboxylate], the Ki was at most 100 nM. `CN1CCC(COC(=O)c2cc3ccc(CN)nc3n2Cc2cc(NS(=O)(=O)Cc3ccc(F)s3)cc3ccccc23)CC1` [Compound 149, (1-methylpiperidin-4-yl)methyl 6-(amino-methyl)-1-({3-[(5-fluoro-thiophen-2-yl)methane-sulfonamido]naphthalen-1-yl}methyl)-1H-pyr-rolo[2,3-b]pyridine-2-carboxylate] was tested, and the Ki was at most 100 nM. `CN1CCC(CCOC(=O)c2cc3ccc(CN)nc3n2Cc2cc(NS(=O)(=O)Cc3cccs3)cc3ccccc23)CC1` [Compound 150, 2-(1-methylpiperidin-4-yl)ethyl 6-(aminometh-yl)-1-({3-[(thiophen-2-yl)methanesulfonamido]-naphthalen-1-yl}methyl)-1H-pyrrolo[2,3-b]pyr-idine-2-carboxylate] was tested, and the Ki was at most 100 nM. In the case of `NCc1ccc2cc(C(=O)OCCN3CCOCC3)n(Cc3cc(NS(=O)(=O)Cc4cccs4)cc4ccccc34)c2n1` [Compound 151, 2-(morpholin-4-yl)ethyl 6-(aminomethyl)-1-({3-[(thiophen-2-yl)methane-sulfonamido]naphthalen-1-yl}methyl)-1H-pyr-rolo[2,3-b]pyridine-2-carboxylate], the Ki is reported as at most 100 nM.
